# Data reported in patent US20070141636A1 (priority 2003, published 2007).
# pIC50: −log10 of the molar value. Entries after “also recorded” stand apart in the source; their conditions may differ. Read-outs that look alike come from different tables or passages of the source.
# Legend:
# LnCap cells [1] = assay type: cell-based, human
# LnCap cells [2] = assay type: cell-based, human; remark: listed apart in the source
# LnCap cells [3] = conditions: LnCap AR with residue 877 threonine to alanine mutation; cited from earlier work
# [4] = molecular target: T1, LnCap AR (residue 877 threonine to alanine) (Homo sapiens, UniProt P10275, T878A); conditions: LnCap AR expression vector; cited from earlier work
# T1 sequence (P10275 1-920 T878A): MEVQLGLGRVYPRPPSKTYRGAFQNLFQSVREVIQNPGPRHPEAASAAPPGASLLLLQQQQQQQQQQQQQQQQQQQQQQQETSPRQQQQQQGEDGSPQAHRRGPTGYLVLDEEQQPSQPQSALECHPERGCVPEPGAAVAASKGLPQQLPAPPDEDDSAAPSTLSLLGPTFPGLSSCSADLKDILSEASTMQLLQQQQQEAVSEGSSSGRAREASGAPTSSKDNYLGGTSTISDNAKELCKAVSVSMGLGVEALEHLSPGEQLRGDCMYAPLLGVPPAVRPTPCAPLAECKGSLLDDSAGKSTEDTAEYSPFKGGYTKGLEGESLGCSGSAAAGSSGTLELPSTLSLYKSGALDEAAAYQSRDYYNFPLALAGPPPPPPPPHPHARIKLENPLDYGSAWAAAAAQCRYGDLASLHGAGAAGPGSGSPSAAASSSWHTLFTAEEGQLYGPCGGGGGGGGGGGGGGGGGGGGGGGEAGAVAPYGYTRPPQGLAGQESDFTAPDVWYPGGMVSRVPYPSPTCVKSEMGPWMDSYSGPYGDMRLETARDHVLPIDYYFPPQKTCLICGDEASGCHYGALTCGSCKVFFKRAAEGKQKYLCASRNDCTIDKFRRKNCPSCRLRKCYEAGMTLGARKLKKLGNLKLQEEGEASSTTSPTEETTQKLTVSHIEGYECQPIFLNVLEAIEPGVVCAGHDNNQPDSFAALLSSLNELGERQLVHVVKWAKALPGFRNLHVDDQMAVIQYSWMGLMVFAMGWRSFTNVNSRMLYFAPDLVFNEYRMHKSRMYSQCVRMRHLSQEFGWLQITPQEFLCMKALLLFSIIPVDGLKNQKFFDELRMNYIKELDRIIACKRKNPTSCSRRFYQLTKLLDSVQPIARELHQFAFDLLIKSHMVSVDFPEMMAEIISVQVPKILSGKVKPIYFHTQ
# [5] = molecular target: T2, rhARLBD (ligand binding domain of the rhesus monkey AR) (Macaca mulatta, UniProt Q6QT55); test: Hydroxyapatite (HAP)-based 3H-R1881 displacement binding assay using rhARLBD expressed in yeast
# T2 construct: includes amino acids 601 to 895 of the rhesus monkey AR; made in house; host or cells: yeast (pESP-1 vector, Stratagene)
# T2 sequence (Q6QT55 601-895): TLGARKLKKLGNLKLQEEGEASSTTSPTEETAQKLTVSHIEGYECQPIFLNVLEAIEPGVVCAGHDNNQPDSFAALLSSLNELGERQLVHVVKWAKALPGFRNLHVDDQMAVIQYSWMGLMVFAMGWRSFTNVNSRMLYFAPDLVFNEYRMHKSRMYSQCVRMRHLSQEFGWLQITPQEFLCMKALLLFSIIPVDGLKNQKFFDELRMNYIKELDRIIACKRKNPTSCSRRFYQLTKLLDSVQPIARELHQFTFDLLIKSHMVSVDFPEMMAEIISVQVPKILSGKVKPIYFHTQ
# From the text: The screening assays were set up to use the ARLBD from Macaca mulatta (rhesus monkey; herein after rhARLBD) expressed in yeast. […] A medium to high throughput AR binding assay for screening analyte libraries and characterizing various analytes therein was also developed.
# Cloning the full length rhesus monkey AR from rhesus monkey prostrate mRNA and subsequent subcloning of the rhARLBD was done as described in WO02090529 to Towler and Chen. Briefly, the rhARLBD was PCR amplified from the full rhesus monkey AR and inserted in frame with GST at a SmaI site of the pESP-1 clone. This placed the rhARLBD downstream of the GST-flag tag.
# Cell lysates comprising the rhARLBD were prepared as follows. GST-Flag-rhARLBD (Mr=60 kDa) fusion protein was expressed in yeast using the pESP-1 vector (Stratagene, La Jolla, Calif.) according to the manufacturer's protocol. After a sufficient time to express the GST-Flag-rhARLBD the yeast were centrifuged and the yeast pellet resuspended in TGEM/DTT/PI buffer (10 mM Tris-HCl, pH 7.4, 1 mM EDTA, 10% glycerol, 10 mM molybdate, 2 mM dithiothreitol (DTT), 50 μL yeast protease inhibitor cocktail (PI, Sigma Chemicals, St. Louis, Mo.) per gram of yeast and 1/10×^th volume of PI complete (PI: Boehringer-Mannheim, Roche Applied Science, Indianapolis, Ind.) per gram of yeast. The yeast cells were lysed by vortexing in the presence of glass beads in cold TGEM/DTT/PI buffer. The cell debris was centrifuged at 10,000×g for 20 minutes at 4° C. The clear supernatant fraction containing the rhARLBD was the lysate used for the assays. Usually, about 25 to 50 μL of lysate as determined by titration was used per assay. In some cases, the rhARLBD fusion protein was purified from the lysate using a batch purification method using anti-Flag M2 affinity gel (Sigma) in TEGM/DTT buffer. The rhARLBD fusion protein was eluted using TEGM/DTT buffer containing 100 μg/mL Flag peptide.
# Hydroxyapatite (HAP)-based binding assays were performed as follows: For the hydroxyapatite assays, the amount of lysate used was based on titration using ^3H-ligand at concentration about the Kd value of the ligand to the corresponding receptor. In general, the assay was carried at in 150 μL of TEGM buffer. […] The samples were vortexed and incubated on ice for about 10 minutes. […] The washing process transfers the HAP pellets containing ligand-bound-expressed receptor to [sequence]-96 GF/B (Packard Instruments Co.) which has been prewetted in 0.5% polyethylimine. The HAP pellets on the filter plates were incubated with 50 μL of MICROSCINT (Packard Instruments Co.) for 2 hours before counted on the TOPCOUNT (Packard Instruments Co.). […] The binding reactions were incubated for about 18 hours at 4° C. and process as above).
SMILES,"agonist activity, PSA production in LnCap cells (agonist mode) (LnCap cells [1])",antagonist activity on PSA production in LnCap cells (antagonist mode) (LnCap cells [2]),stimulation of LnCap cell growth through the AR (LnCap cells [3]),further results
CC(O)(CS(=O)(=O)c1ccc(F)cc1)C(=O)Nc1ccc(C#N)c(C(F)(F)F)c1 (stereo not shown) [CASODEX],full antagonist,antagonist activity,retains its antagonism,
CC(C)(O)C(=O)Nc1ccc([N+](=O)[O-])c(C(F)(F)F)c1 [hydroxyflutamide],,,able to stimulate cell growth,effect on the androgen promoter in receptor/reporter cotransfection [4]: agonist effect
"C[C@]1(O)CC[C@H]2[C@@H]3CCC4=CC(=O)CCC4=C3C=C[C@@]21C [R1881, 17 β-hydroxy-17-methyl-estra-4,9,11-trien-3-one]",slightly less potent than DHT; also recorded: had agonist activity,does not antagonize,,pIC50 [5]: ~9.00; binding affinity to rhARLBD compared to full-length human AR [5]: same binding affinity; also recorded: no significant shift
"C[C@]12CCC(=O)C=C1CC[C@@H]1[C@@H]2CC[C@]2(C)C(=O)CC[C@@H]12 [4-androstene-3,17β-dione]",had agonist activity,antagonist activity; also recorded: antagonized the agonist activity of DHT and R1881,,"binding affinity to rhARLBD compared to full-length human AR ([5]; comparison of IC50s, rhARLBD (yeast lysate) vs full-length human AR (mdaAR), FIGS. 2A-2D, 3A-3D): reduced binding affinity"
"C[C@]12CC[C@H](O)CC1=CC[C@@H]1[C@@H]2CC[C@]2(C)C(=O)CC[C@@H]12 [DHEA, dehydroepiandrosterone]",had agonist activity,antagonist activity; also recorded: antagonized the agonist activity of DHT and R1881,,
CC(=O)[C@H]1CC[C@H]2[C@@H]3CCC4=CC(=O)CC[C@]4(C)[C@H]3CC[C@]12C [progesterone],,,able to stimulate cell growth,
"CC(=O)O[C@]1(C(C)=O)CC[C@H]2[C@@H]3C=C(Cl)C4=CC(=O)[C@@H]5C[C@@H]5[C@]4(C)[C@H]3CC[C@@]21C [CPA, cyproterone acetate]",had agonist activity,antagonist activity; also recorded: antagonized the agonist activity of DHT and R1881,able to stimulate cell growth,
"C[C@]12CC[C@H]3[C@@H](CCC4=C[C@@H](O)CC[C@@]43C)[C@@H]1CC[C@@H]2O [4-androstene-3β,17β-diol]",had agonist activity,antagonist activity; also recorded: antagonized the agonist activity of DHT and R1881,,
"C[C@]12CCC(=O)C[C@@H]1CC[C@@H]1[C@@H]2CC[C@]2(C)[C@@H](O)CC[C@@H]12 [DHT, 5-α-dihydrotestosterone]",full agonist activity; also recorded: had agonist activity,full agonist activity,,
